The values below come from ChEMBL document CHEMBL3430912, “GSK Tres Cantos Anti-Kinetoplastid Screening (TCAKS) Data”.

Some results are limits rather than exact numbers.

Series [1] has as its system Leishmania donovani. Description: GSK_TCAKS: pIC50 Leishmania donovani viability assay using fluorescence intensity. Assay plates (1536-well) were prepared by adding 30nL per well of compound. For single shot assay, the final compound concentration was 5uM. […] Briefly, eGFP LdBOB axenic amastigotes were harvested, fixed and counted in a CASY cell counter (Roche-Applied Science). A final concentration of 1.5 * 10^5 cells per well were prepared in amastigote media containing 500 U/mL penicillin/streptomycin (Invitrogen) and 6uL was dispensed to each experimental well using a Multidrop Combi dispenser (Thermo Scientific). 6uL of assay media was dispensed to control columns used as reference for 100% compound response. Following incubation for 72 h at 37C, 5% CO2, 2 uL of resazurin was added to each well at a final concentration of 0.5 mM in phosphate buffered saline (PBS) with IGEPAL (Sigma-Aldrich), 0.05% (v/v). It counts as functional, organism-based.

Series [2] relates to Leishmania donovani. Description: GSK_TCAKS: pIC50 Leishmania donovani Imaging: Amastigotes/Macrophages. Assay plates (384-well) were prepared by adding 250nL of compound to each well. For single shot assay, the final compound concentration was 5 uM. […] Automated image analysis was performed with a script developed on Acapella High Content Imaging and Analysis Software (PerkinElmer). Output: Average number of amastigotes per macrophage cell were reported for each well. It counts as functional, organism-based, Homo sapiens. The conditions noted are these: THP-1.

The nature of series [3]: GSK_TCAKS: pIC50 HepG2 human cell line viability assay using luminiscence. […] Seeding density was checked to ensure that new mono-layers were not more than 50% confluent at the time of harvesting. Cell suspension was added to 500 mL of the same medium at a final density of 1.2 * 10^5 cells/mL. This cell suspension was dispensed (25 uL, 3000 cells per well) into 384-well clear-bottom plates using a Multidrop Combi dispenser. Prior to addition of the cell suspension, the screening compounds (250 nL) were pre-dispensed into the plates with an Echo liquid handler. Plates were incubated for 48 h at 37C, 5% CO2. After incubation, plates equilibrated at room temperature for 30 min before proceeding to develop the luminescent signal. The signal developer, CellTiter-Glo Reagent, was allowed to equilibrate at room temperature for 30 min and added to the plates (25uL per well) using a Multidrop Combi dispenser. Plates were left for 10 min at room temperature for stabilization and then read using a ViewLux. In kind it is toxicity, cell-based. (In general: In ATP-based viability assays light output follows the ATP content of the culture.)

Series [4] has as its system Trypanosoma cruzi. Description: GSK_TCAKS: pIC50 Trypanosoma cruzi Imaging: Amastigotes/Cell. […] Cells were then washed once with PBS before infection. T. cruzi trypomastigotes, collected at days 5 to 8 after infection from LLC-MK2 parasite infected cultures, were allowed to swim out for 4h at 37C from a centrifuged pellet (2,500 rpm/10 min/room temperature). Trypomastigotes were then collected and counted in a CASY Cell Counter. Trypomastigotes, in supplemented DMEM, were added to H9c2 cultures in a multiplicity of infection of 1 and incubated for 18 h. Cells were washed once with PBS before incubation of the infected H9c2 monolayer with trypsin (Life-Technologies) to detach cells from the flask. Cells were counted in a CASY Cell Counter using a 150 um capillary and their density set at 5 * 10^4 cells per mL in supplemented assay DMEM. Infected H9c2 were dispensed into 384-well poly-lysine coated assay plates at 50uL per well using a Multidrop Combi dispenser. After seeding them, the plates were incubated at 37C, 5% CO2 for 72h. Cultures were then fixed and stained by addition of 50 uL of a solution containing 8% formaldehyde and 4 uM DRAQ5 DNA dye (BioStatus, UK) per well. […] Five images were collected per well for reliable statistical analysis. Automated image analysis was performed with a script developed on Acapella High Content Imaging and Analysis Software (PerkinElmer). Output: number of amastigotes per cell as infection level measurement. It counts as functional, organism-based, Rattus norvegicus. The conditions noted are these: H9c2, 4 h.

Series [5] relates to Trypanosoma cruzi. Description: GSK_TCAKS: pIC50 Trypanosoma cruzi viability assay using beta-GAL activity. This assay was run at single shot at 5uM compound concentration per well. The biological reagents consisted of NIH-3T3 host cells and trypomastigotes parasitic cells; both cell types were set to a 3.3 * 10^5 cells/mL dilution in assay DMEM by means of a CASY cell counter device using a 60um capillary. 6 uL of the mixture were dispensed per well (about 1 * 10^3 host-cells and 1 * 10^3 parasites) with a Multidrop Combi dispenser. […] In all wells, the percentage of DMSO never exceeded 0.5%. Plates incubated for four days at 37C, 5% CO2. The substrate used for the assay fluorescence intensity (FLINT) readout was resorufin-beta-D-galactopiranoside (Sigma-Aldrich) at 5uM per well. It was diluted in PBS supplemented with the soft detergent Igepal (Fluka). It counts as functional, organism-based, Mus musculus. The conditions noted are these: Tulahuen, NIH3T3.

Series [6] deals with Leishmania donovani. The experiment in a line: GSK_TCAKS: pIC50 Leishmania donovani Imaging: THP-1 Host Macrophages. Assay plates (384-well) were prepared by adding 250nL of compound to each well. For single shot assay, the final compound concentration was 5 uM. […] Automated image analysis was performed with a script developed on Acapella High Content Imaging and Analysis Software (PerkinElmer). Output: THP-1 cell count were reported for each well. It counts as functional, organism-based, Homo sapiens.

Series [7] relates to Trypanosoma brucei brucei. The experiment in a line: GSK_TCAKS: pIC50 Trypanosoma brucei viability assay using luminiscence. Assay plates (1536-well) were prepared. T. brucei cultures were harvested and counted in a CASY cell counter. A parasite suspension was prepared at a final concentration of 5 * 10^4 cells/mL in complete HMI9 medium and 6uL was dispensed to all wells containing compounds using a Multidrop Combi dispenser. 6uL of HMI9 media with 0.4% DMSO were dispensed to control columns. Plates were incubated for 24 h at 37C, 5% CO2 then tempered for 10 min at room temperature. ATP content was quantified by adding 4 uL of CellTiter-Glo Reagent (Promega) according to the manufacturer's instructions. Luminescence was measured using a ViewLux. It counts as functional, organism-based. The conditions noted are these: Lister 427, CASY.

Series [8] deals with Sterol 14-alpha demethylase (Trypanosoma cruzi (strain CL Brener), UniProt Q7Z1V1). Description: GSK_TCAKS: pIC50 CYP51 from Trypanosoma cruzi. It counts as functional.
For series [9], the system named is Trypanosoma brucei brucei. Description: GSK_TCAKS: pIC50 Trypanosoma brucei viability assay using fluorescence intensity. Assay plates (1536-well) were prepared by dispensing 25nL of compound solution per well using an Echo acoustic dispenser (Labcyte). It counts as functional, organism-based. The conditions noted are these: Lister 427, 2 h.
Series [10] relates to Trypanosoma cruzi. The experiment in a line: (§1) GSK_TCAKS: pIC50 Trypanosoma cruzi Imaging: Infected Cells. […] Cells were then washed once with PBS before infection. T. cruzi trypomastigotes, collected at days 5 to 8 after infection from LLC-MK2 parasite infected cultures, were allowed to swim out for 4h at 37C from a centrifuged pellet (2,500 rpm/10 min/room temperature). Trypomastigotes were then collected and counted in a CASY Cell Counter. Trypomastigotes, in supplemented DMEM, were added to H9c2 cultures in a multiplicity of infection of 1 and incubated for 18 h. Cells were washed once with PBS before incubation of the infected H9c2 monolayer with trypsin (Life-Technologies) to detach cells from the flask. Cells were counted in a CASY Cell Counter using a 150 um capillary and their density set at 5 * 10^4 cells per mL in supplemented assay DMEM. Infected H9c2 were dispensed into 384-well poly-lysine coated assay plates at 50uL per well using a Multidrop Combi dispenser. After seeding them, the plates were incubated at 37C, 5% CO2 for 72h. Cultures were then fixed and stained by addition of 50 uL of a solution containing 8% formaldehyde and 4 uM DRAQ5 DNA dye (BioStatus, UK) per well. […] Five images were collected per well for reliable statistical analysis. Automated image analysis was performed with a script developed on Acapella High Content Imaging and Analysis Software (PerkinElmer). Output: percentage of infected cells per well as a second infection marker. The conditions noted are these: H9c2, 4 h. In kind it is functional, organism-based, Rattus norvegicus.

Series [11] deals with Trypanosoma cruzi. Described as §1, with “H2C9” for “Trypanosoma cruzi”, “H9c2 Host Cardiomyocytes.” for “Infected Cells.”, “Number” for “percentage”, “H9c2 Host Cardiomyocytes nuclei to determine drug-related cytotoxicity.” for “infected cells per well as a second infection marker.”. It counts as functional, organism-based, Rattus norvegicus. The conditions noted are these: H9c2, 4 h.

Series [12] relates to Leishmania donovani. The experiment in a line: GSK_TCAKS: pIC50 Leishmania donovani Imaging: Infected Macrophages. Assay plates (384-well) were prepared by adding 250nL of compound to each well. For single shot assay, the final compound concentration was 5 uM. […] Automated image analysis was performed with a script developed on Acapella High Content Imaging and Analysis Software (PerkinElmer). Output: Percent of infected macrophage cells were reported for each well. It counts as functional, organism-based, Homo sapiens. The conditions noted are these: THP-1.

Sterol 14-alpha demethylase, sequence (Q7Z1V1 whole entry): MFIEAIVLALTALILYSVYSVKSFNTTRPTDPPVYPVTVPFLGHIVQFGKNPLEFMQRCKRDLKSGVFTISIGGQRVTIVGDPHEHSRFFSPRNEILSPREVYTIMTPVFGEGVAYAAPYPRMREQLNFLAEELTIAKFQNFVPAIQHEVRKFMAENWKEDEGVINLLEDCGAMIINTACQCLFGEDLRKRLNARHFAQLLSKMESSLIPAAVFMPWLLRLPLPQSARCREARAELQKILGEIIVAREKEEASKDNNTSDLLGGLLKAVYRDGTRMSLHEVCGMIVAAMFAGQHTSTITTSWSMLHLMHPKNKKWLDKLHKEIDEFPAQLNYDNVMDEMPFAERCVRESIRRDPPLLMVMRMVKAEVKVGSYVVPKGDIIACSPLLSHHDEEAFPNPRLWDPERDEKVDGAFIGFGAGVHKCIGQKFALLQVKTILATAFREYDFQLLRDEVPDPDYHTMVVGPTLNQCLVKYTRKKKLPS

Take `CC(C)S(=O)(=O)c1ccc(-c2cnc(N)c3cc(-c4ccnc(N)n4)ccc23)cc1`: the IC50 (commonly the concentration that gives 50% inhibition) was 2 µM in series [1]; 0.501 µM in [2]; 12.6 µM in [4]; 0.794 µM in series [5]; 2.51 µM in series [6]; 0.251 µM in [7]. Moreover, the IC50 is 15.8 µM in series [8]; 0.2 µM in series [9]; 39.8 µM in [10]; 0.501 µM in series [11]; 1.26 µM in series [12]. This molecule gave an IC50 at 48 h in series [3] of 15.8 µM.
`Cc1cc(Oc2cc(Cl)c(Cl)cc2Cl)n2ncnc2n1`: the IC50 in [1] is 15.8 µM; in [2], 12.6 µM; in series [4] it was 10 µM; in series [5], 5.01 µM; in [6] it was 10 µM; in [7] it was 0.398 µM. Also, the IC50 in series [8] is over 100 µM; in [9] it was 0.794 µM; in series [10], 25.1 µM; in series [11] it was 7.94 µM; in series [12], 15.8 µM. In addition, half-maximal inhibition in series [3] (IC50 at 48 h) required 31.6 µM.
As to `COc1cnc2ccc(=O)n(CCN3CCC(NC(=O)c4ccc(Cl)cc4)CC3)c2c1`, the IC50 in series [1] was 2 µM; in series [2], 3.98 µM; in series [4], 0.0794 µM; in series [5], 0.126 µM; in [6], over 50.1 µM; in [7], 0.1 µM. Also, the IC50 was 10 µM in series [8]; 0.0794 µM in series [9]; 0.251 µM in [10]; 0.631 µM in series [11]; over 50.1 µM in series [12]. Moreover, the IC50 at 48 h in series [3] is over 100 µM.
`CCn1c(-c2nonc2N)nc2c([C@@H](C)O)ncc(O[C@H](CN)c3ccccc3)c21`: the IC50 is 20 µM in series [1]; 3.16 µM in series [2]; 7.94 µM in series [4]; 7.94 µM in [5]; 3.16 µM in series [6]; 0.794 µM in series [7]. Moreover, the IC50 in [8] is 25.1 µM; in series [9] it was 0.631 µM; in series [10], 10 µM; in series [11] it was 0.631 µM; in [12], 5.01 µM. Moreover, the IC50 at 48 h in series [3] is 79.4 µM.
`Cc1nn(-c2nc3ccccc3s2)c2c1C(c1ccc(OCC(N)=O)cc1)SCC(=O)N2` (configuration not stated): the IC50 is over 50.1 µM in series [1]; over 50.1 µM in [2]; over 50.1 µM in series [4]; 5.01 µM in [5]; over 50.1 µM in [6]; 0.0316 µM in series [7]. The IC50 is over 100 µM in series [8]; 0.02 µM in series [9]; over 50.1 µM in [10]; over 50.1 µM in [11]; over 50.1 µM in [12]. In series [3], this molecule gave an IC50 at 48 h of over 100 µM.
For `COc1cc(C2SCC(=O)Nc3c2c(C)nn3-c2nc3ccccc3s2)cc(OC)c1O` (configuration not stated), the IC50 in series [1] was 6.31 µM; in series [2] it was 0.251 µM; in series [4], over 50.1 µM; in series [5] it was over 50.1 µM; in [6], over 50.1 µM; in series [7] it was over 39.8 µM. For the same molecule, the IC50 in [8] is 5.01 µM; in series [9] it was 6.31 µM; in [10], over 50.1 µM; in series [11], over 50.1 µM; in series [12], 0.316 µM. In [3], this molecule had an IC50 at 48 h of over 100 µM.
